Reference: EP1202975B1, “SUBSTITUTED POLYCYCLIC ARYL AND HETEROARYL PYRAZINONES USEFUL FOR SELECTIVE INHIBITION OF THE COAGULATION CASCADE” (Pharmacia Corporation, priority 1999, dated 2000)
Where two headings read alike, the source gives them in different places.

Assays:
TF-VIIa = biological target: T1, TF-VIIa (Homo sapiens, UniProt P08709); experiment: TF-VIIa Assay; format: biochemical; details: for IC50: cells given as a plain number (IC50), read-out: IC50 or % Inhibition TF-VIIa (30 µM); for IC50 or % Inhibition TF-VIIa (30 µM): % inhibition at 30 µM
T1 construct: 2nM recombinant human factor VIIa; purchased American Diagnostica, Greenwich CT; host or cells: soluble TF made in house in E. coli
T1 sequence (P08709 213-466 limits assumed): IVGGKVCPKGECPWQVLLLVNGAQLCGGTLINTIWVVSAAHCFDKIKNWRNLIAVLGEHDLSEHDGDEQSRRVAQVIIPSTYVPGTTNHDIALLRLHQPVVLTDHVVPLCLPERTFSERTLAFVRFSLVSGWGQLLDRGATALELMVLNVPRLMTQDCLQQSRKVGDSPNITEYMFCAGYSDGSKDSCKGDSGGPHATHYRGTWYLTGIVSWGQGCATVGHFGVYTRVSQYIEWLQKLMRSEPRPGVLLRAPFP
T1 sequence (P08709 61-212 limits assumed): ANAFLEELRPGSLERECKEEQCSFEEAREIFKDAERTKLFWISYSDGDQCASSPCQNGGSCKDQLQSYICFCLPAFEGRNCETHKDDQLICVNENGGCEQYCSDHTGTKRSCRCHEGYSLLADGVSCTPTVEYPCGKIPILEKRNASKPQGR
T1 sequence (P13726 33-251 partner limits assumed): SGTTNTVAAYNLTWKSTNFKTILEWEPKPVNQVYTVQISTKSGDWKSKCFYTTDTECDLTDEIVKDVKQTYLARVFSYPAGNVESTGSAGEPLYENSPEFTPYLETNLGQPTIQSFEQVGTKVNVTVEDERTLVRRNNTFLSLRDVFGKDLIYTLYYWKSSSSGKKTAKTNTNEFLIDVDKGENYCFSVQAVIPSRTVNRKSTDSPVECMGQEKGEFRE

Human factor Xa = Human factor Xa (Homo sapiens, UniProt P00742); experiment: Xa Assay; details: for IC50 or % Inhibition Factor Xa (30 µM): % inhibition at 30 µM
Sequence of Human factor Xa (P00742 235-488 limits assumed): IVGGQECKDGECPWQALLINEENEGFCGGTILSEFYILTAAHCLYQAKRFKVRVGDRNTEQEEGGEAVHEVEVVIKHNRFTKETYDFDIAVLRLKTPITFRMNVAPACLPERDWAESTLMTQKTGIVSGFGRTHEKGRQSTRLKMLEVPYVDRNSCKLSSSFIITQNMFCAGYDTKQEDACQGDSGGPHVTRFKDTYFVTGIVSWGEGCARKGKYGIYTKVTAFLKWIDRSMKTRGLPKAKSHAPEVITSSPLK
Sequence of Human factor Xa (P00742 41-179 limits assumed): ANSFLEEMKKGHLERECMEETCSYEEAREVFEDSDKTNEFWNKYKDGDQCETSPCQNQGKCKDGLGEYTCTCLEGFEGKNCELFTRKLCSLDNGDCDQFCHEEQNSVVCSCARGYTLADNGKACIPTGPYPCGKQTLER

[1] = read-out: IC50 or % Inhibition Factor Xa (30 µM), cells given as a plain number (IC50)

SMILES | IC50 (TF-VIIa) [µM] | IC50 or % Inhibition Factor Xa (30 µM) (Human factor Xa) | IC50 (Human factor Xa) [µM] | IC50 (Human factor Xa; [1]) [µM] | IC50 or % Inhibition TF-VIIa (30 µM) (TF-VIIa) [%@30]
N#CCCNc1nc(Cl)c(-c2ccccc2)n(CC(=O)NCc2ccc(C(=N)N)cc2)c1=O [Example 53] | 0.3 | 7% | – | – | –
CN(C)c1cccc(-c2c(Cl)nc(NCCc3ccccc3)c(=O)n2CC(=O)NCc2ccc(C(=N)N)cc2)c1 [Example 103] | 0.3 | 11%@30 | – | – | –
CNc1cccc(-c2c(Cl)nc(NC(C)C)c(=O)n2CC(=O)NCc2ccc(C(=N)N)cc2)c1 [Example 104] | 1.2 | – | > 30 | – | –
N=C(N)c1ccc(CNC(=O)Cn2c(-c3ccccc3)cnc(NC(=O)Nc3ccccc3)c2=O)cc1 [Example 106] | 1.11 | 30% | – | – | –
N=C(N)c1ccc(CNC(=O)Cn2c(-c3ccccc3)cnc(NC(=O)Nc3cccc(N)c3)c2=O)cc1 [Example 107] | 0.57 | 35% | – | – | –
N=C(N)c1ccc(CNC(=O)Cn2c(-c3ccccc3)cnc(NC(=O)Nc3cc(Cl)cc(Cl)c3)c2=O)cc1 [Example 108] | 4.13 | 20% | – | – | –
CC(C)NC(=O)Nc1ncc(-c2ccccc2)n(CC(=O)NCc2ccc(C(=N)N)cc2)c1=O [Example 109] | 6.17 | 10% | – | – | –
CC(C)Nc1nc(Cl)c(-c2ccc(Cl)nc2)n(CC(=O)NCc2ccc(C(=N)N)cc2F)c1=O [compound 74] | 3.25 | 13% | – | – | –
N=C(N)c1ccc(CNC(=O)Cn2c(-c3cccc([N+](=O)[O-])c3)c(Cl)nc(NCCc3ccccc3)c2=O)cc1 [compound 77] | 2.52 | – | – | > 30 | –
Cc1ccccc1-c1c(Cl)nc(NCCc2ccccc2)c(=O)n1CC(=O)NCc1ccc(C(=N)N)cc1 [compound 78] | 0.43 | 16%@30 | – | – | –
N=C(N)c1ccc(CNC(=O)Cn2c(-c3cccc4ccccc34)c(Cl)nc(NCCc3ccccc3)c2=O)cc1 [compound 80] | 1.29 | 29%@30 | – | – | –
Cc1cccc(-c2c(Cl)nc(NCCc3ccccc3)c(=O)n2CC(=O)NCc2ccc(C(=N)N)cc2)c1 [compound 81] | 1 | 33%@30 | – | – | –
N=C(N)c1ccc(CNC(=O)Cn2c(-c3ccc4ccccc4c3)c(Cl)nc(NCCc3ccccc3)c2=O)cc1 [compound 82] | 20 | 32%@30 | – | – | –
Cc1cccc(-c2cnc(NCCc3ccccc3)c(=O)n2CC(=O)NCc2ccc(C(=N)N)cc2)c1 [compound 83] | 0.75 | – | – | > 30 | –
Cc1cccc(-c2cnc(NCCc3ccccc3)c(=O)n2CC(=O)NCc2ccc(C(=N)N)cc2)c1 [compound 84] | 3.03 | – | – | > 30 | –
Cc1cccc(-c2cnc(NCCc3ccccc3)c(=O)n2CC(=O)NCc2ccc(C(=N)N)cc2)c1 [compound 85] | 0.88 | 42%@30 | – | – | –
Nc1cccc(-c2c(Cl)nc(NC3CCC3)c(=O)n2CC(=O)NCCc2ccccc2)c1 [compound 89] | – | 5%@30 | – | – | 5
CNc1cccc(-c2c(Cl)nc(NC(C)C)c(=O)n2CC(=O)NCc2ccc(C(=N)N)cc2)c1 [compound 96] | 0.26 | – | – | > 30 | –
Nc1cccc(-c2c(Cl)nc(NC3CCC3)c(=O)n2CC(=O)NCc2ccccc2)c1 [compound 99] | – | 8%@30 | – | – | 6

The remaining compounds from weak to strong by IC50 (TF-VIIa), led by results:

IC50 (TF-VIIa) [µM] | IC50 or % Inhibition Factor Xa (30 µM) (Human factor Xa) | IC50 (Human factor Xa) [µM] | IC50 (Human factor Xa; [1]) [µM] | IC50 or % Inhibition TF-VIIa (30 µM) (TF-VIIa) [%@30] | SMILES
0.21 | 9% | – | – | – | CC(C)Nc1nc(Cl)c(-c2cccnc2)n(CC(=O)NCc2ccc(C(=N)N)cc2)c1=O [compound 75]
0.15 | 0% | – | – | – | CC(C)Nc1nc(Cl)c(-c2cccc(N)c2)n(CC(=O)NCc2ccc(C(=N)N)s2)c1=O [Example 55]
0.1 | – | – | > 30 | – | N=C(N)c1ccc(CNC(=O)Cn2c(-c3cccc(N)c3)c(Cl)nc(NCc3ccccc3)c2=O)cc1 [compound 88]
0.09 | 10%@30 | – | – | – | Cc1c(N)cccc1-c1cnc(NC(C)C)c(=O)n1CC(=O)NCc1ccc(C(=N)N)cc1 [compound 98]
0.07 | 26%@30 | – | – | – | N=C(N)c1ccc(CNC(=O)Cn2c(-c3cccc(N)c3)c(Cl)nc(NCCc3ccccc3)c2=O)cc1 [compound 86]
0.07 | – | – | > 30 | – | N=C(N)c1ccc(CNC(=O)Cn2c(-c3cccc(N)c3)c(Cl)nc(NCCc3cccc(Cl)c3)c2=O)cc1 [compound 87]
0.07 | – | – | 7 | – | N=C(N)NCCCC(NC(=O)Cn1c(-c2cccc(N)c2)c(Cl)nc(NCc2ccccc2)c1=O)C(=O)c1nccs1 (stereo not shown) [compound 91]
0.07 | – | – | > 30 | – | CC(C)(C)Nc1nc(Cl)c(-c2cccc(N)c2)n(CC(=O)NCc2ccc(C(=N)N)cc2)c1=O [compound 93]
0.053 | 18%@30 | – | – | – | N=C(N)c1ccc(CNC(=O)Cn2c(-c3cccc(N)c3)cnc(NC3CCC3)c2=O)cc1 [compound 92]
0.04 | – | – | > 30 | – | CN(C)Nc1nc(Cl)c(-c2cccc(N)c2)n(CC(=O)NCc2ccc(C(=N)N)cc2)c1=O [compound 94]
0.04 | – | – | > 30 | – | Cc1c(N)cccc1-c1c(Cl)nc(NC(C)C)c(=O)n1CC(=O)NCc1ccc(C(=N)N)cc1 [compound 97]
0.03 | 0% | – | – | – | CC(C)Nc1nc(Cl)c(-c2cc(N)ccc2F)n(CC(=O)NCc2ccc(C(=N)N)cc2F)c1=O [compound 73]
0.02 | 16%@30 | – | – | – | N=C(N)c1ccc(CNC(=O)Cn2c(-c3cccc(N)c3)c(Cl)nc(NC3CCC3)c2=O)cc1 [compound 90]
